Experimental data taken from PubChem BioAssay (NCI).
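Dose response: 5 concentrations. Exposure: 48 h. Format: 96-well plates. Endpoint: linear interpolation; highest concentration if not reached. GI50 marks 50% less growth. Definition used: TGI = concentration required for complete inhibition of growth.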

Key:
Test in all cases: NCI tumour cell line growth inhibition, 48 h
[1] = tested on: A498 renal
[2] = tested on: HOP-62 NSCLC
[3] = tested on: HT29 colon
[4] = tested on: OVCAR-3 ovarian
[5] = tested on: OVCAR-5 ovarian
[6] = tested on: SN12C renal
[7] = tested on: SNB-19 CNS
[8] = tested on: TK-10 renal
[9] = tested on: XF 498 CNS
[10] = tested on: 786-0 renal

In the case of `Cc1cccc(NC(N)=S)c1`, the TGI [1] was over 100 µM, the TGI [2] was over 100 µM and the TGI [3] was over 100 µM. For the same compound, the TGI [4] was over 100 µM, the TGI [5] was over 100 µM and the TGI [6] was over 100 µM. For the same compound, the TGI [7] was over 100 µM, the TGI [8] was over 100 µM and the TGI [9] was over 100 µM.

`COc1ccc2c(c1)C(=O)c1c-2n(CCCCl)c(=O)c2cc([N+](=O)[O-])ccc12` showed a TGI [10] of 0.159 µM, a GI50 [1] of 1.39 µM and a GI50 [3] of 0.0917 µM. The TGI [3] was over 100 µM, the GI50 [4] was 1.32 µM and the TGI [4] was 14 µM. The GI50 [5] was 1.26 µM, the TGI [5] was over 26.4 µM and the TGI [6] was over 20.3 µM. The GI50 [7] was under 0.0505 µM, the TGI [7] was over 100 µM and the GI50 [8] was 0.639 µM.

For `CN(C)C=O.CN(C)C=O.CN1C(C(=O)Nc2ccccn2)=C([O-])c2ccccc2S1(=O)=O.CN1C(C(=O)Nc2ccccn2)=C([O-])c2ccccc2S1(=O)=O.[Cu+2]`, the TGI [10] was over 100 µM, the GI50 [1] was 24.2 µM and the TGI [1] was 65.3 µM. The TGI [2] was 78.8 µM, the TGI [3] was over 100 µM and the TGI [4] was over 100 µM. The TGI [5] was over 100 µM, the TGI [6] was over 100 µM and the TGI [7] was 41.2 µM. The TGI [8] was over 100 µM, the GI50 [9] was 18.8 µM and the TGI [9] was 34.4 µM.

Compound `N=C(N)SC(c1ccccc1)c1ccccc1` has a TGI [10] of 25.2 µM, a TGI [1] of 36.6 µM and a TGI [2] of 41.1 µM. It also gave a TGI [3] of 34.4 µM, a TGI [4] of 28.7 µM and a TGI [5] of 32.2 µM. For the same compound, the TGI [6] was 32.7 µM, the TGI [7] was over 100 µM and the TGI [8] was 28.2 µM.

Compound `Nc1ccc([As](=O)(O)O)cc1` has a TGI [10] of over 100 µM, a TGI [1] of over 100 µM and a TGI [2] of over 100 µM. For the same compound, the TGI [3] was over 100 µM, the TGI [4] was over 100 µM and the TGI [5] was over 100 µM. For the same compound, the TGI [6] was over 100 µM, the TGI [7] was over 100 µM and the TGI [8] was over 100 µM.

`Cn1ncc2c(=O)[nH]c(-c3ccccc3)nc21` was tested, and the TGI [3] was over 100 µM, the TGI [5] was over 100 µM and the TGI [6] was over 100 µM. The TGI [7] was over 100 µM, the TGI [8] was over 100 µM and the TGI [9] was over 100 µM.

For `CC(C)(c1ccccc1)c1ccc(Oc2ccc3c(c2)-c2nc-3nc3[nH]c(nc4nc(nc5[nH]c(n2)c2ccc(Oc6ccc(C(C)(C)c7ccccc7)cc6)cc52)-c2cc(Oc5ccc(C(C)(C)c6ccccc6)cc5)ccc2-4)c2ccc(Oc4ccc(C(C)(C)c5ccccc5)cc4)cc32)cc1`, the TGI [10] was over 100 µM, the TGI [1] was over 100 µM and the TGI [2] was over 100 µM. The TGI [3] was over 100 µM, the TGI [5] was over 100 µM and the TGI [7] was over 100 µM. For the same compound, the TGI [8] was over 100 µM and the TGI [9] was over 100 µM.

With `O=C(Nc1ccc(-n2ccc3c(NC(=O)c4ccccc4)ncnc32)cc1)Nc1ccc(Cl)c(C(F)(F)F)c1` the GI50 [1] was 1.51 µM, the TGI [1] was 3.65 µM and the GI50 [2] was 2.16 µM. The TGI [2] was 4.45 µM, the GI50 [3] was 1.52 µM and the TGI [3] was 3.14 µM. The GI50 [4] was 1.72 µM, the TGI [4] was 3.22 µM and the GI50 [5] was 1.66 µM. The TGI [5] was 3.89 µM, the GI50 [6] was 2.43 µM and the TGI [6] was 6.58 µM. It also gave a GI50 [7] of 2.43 µM, a TGI [7] of 7.18 µM and a GI50 [8] of 1.8 µM. The TGI [8] was 4.95 µM.

`O=C(O)\C=C/C=C/C=C/C=C/C(=O)O` gave a TGI [10] of over 100 µM, a TGI [1] of over 100 µM and a TGI [2] of over 100 µM. It also gave a TGI [3] of over 100 µM, a TGI [4] of over 100 µM and a TGI [5] of over 100 µM. It also gave a TGI [6] of over 100 µM and a TGI [7] of over 100 µM.

With `CCCCCCCCCCCCCCC(C(=O)[O-])[n+]1ccccc1` (stereo not given) the TGI [10] was over 100 µM, the TGI [1] was over 100 µM and the TGI [2] was over 100 µM. The TGI [3] was over 100 µM, the TGI [4] was over 100 µM and the TGI [5] was over 100 µM. The TGI [6] was over 100 µM, the TGI [7] was over 100 µM and the TGI [8] was 28.8 µM.

In the case of `Cc1cc(N2CCCCC2)nc(NCc2cc(Nc3ccnc4cc(Cl)ccc34)ccc2F)n1`, the GI50 [1] was 0.178 µM, the TGI [1] was 0.999 µM and the GI50 [2] was 1.4 µM. For the same compound, the TGI [2] was 2.89 µM, the GI50 [3] was 0.795 µM and the TGI [3] was 2.21 µM. For the same compound, the GI50 [4] was 1.74 µM, the TGI [4] was 3.17 µM and the GI50 [6] was 1.67 µM. For the same compound, the TGI [6] was 3.62 µM, the GI50 [7] was 1.87 µM and the TGI [7] was 6.33 µM. It also gave a GI50 [8] of 1.96 µM and a TGI [8] of 3.67 µM.

In the case of `CC(C)C(C)C(O)C(O)C(C)C1CCC2C3COC(=O)C4CC(O)C(O)CC4(C)C3CCC12C` (stereo not given), the TGI [10] was over 100 µM, the TGI [1] was over 100 µM and the TGI [3] was over 100 µM. It also gave a TGI [5] of over 100 µM, a TGI [6] of over 100 µM and a TGI [7] of over 100 µM. For the same compound, the TGI [8] was over 100 µM.

`NS(=O)(=O)c1ccc(C(=O)O)cc1` was tested, and the TGI [10] was over 100 µM, the TGI [1] was over 100 µM and the TGI [2] was over 100 µM. The TGI [3] was over 100 µM, the TGI [4] was over 100 µM and the TGI [5] was over 100 µM. The TGI [6] was over 100 µM, the TGI [7] was over 100 µM and the TGI [8] was over 100 µM.

Work on `COc1ccc(C(=O)NNC(=O)c2nsc3ccccc23)cc1` yielded a TGI [2] of over 100 µM, a TGI [3] of over 100 µM and a TGI [4] of over 100 µM. The TGI [5] was over 100 µM, the TGI [6] was over 100 µM and the TGI [7] was over 100 µM. It also gave a TGI [8] of over 100 µM.

In the case of `NC(CCCNc1ccc(O)cc1)C(=O)O` (stereo not given), the TGI [10] was 31.5 µM, the TGI [1] was over 73.1 µM and the TGI [2] was over 100 µM. The TGI [3] was over 100 µM, the TGI [4] was 35 µM and the TGI [5] was over 100 µM. It also gave a TGI [6] of over 70.6 µM, a TGI [7] of over 100 µM and a TGI [8] of 97.7 µM. It also gave a TGI [9] of 38.2 µM.

With `CC1(C)CCCC2(C)C3=C(CCC12)C(=O)OC3` (stereo not given) the TGI [10] was over 100 µM, the TGI [1] was over 100 µM and the TGI [2] was over 100 µM. It also gave a TGI [3] of over 100 µM, a TGI [4] of over 100 µM and a TGI [5] of over 100 µM. It also gave a TGI [6] of over 100 µM and a TGI [8] of over 100 µM.

`COC(=O)C12OCC34C(CC5C(C)C6=CC(=O)OC6=CC5(C)C3C(O)C1O)OC(=O)C(OC(C)=O)C24` (stereo not given) gave a TGI [10] of 29.1 µM, a TGI [1] of 43.9 µM and a TGI [2] of 53.2 µM. For the same compound, the TGI [3] was 33.9 µM, the TGI [4] was 29.4 µM and the TGI [5] was 44.2 µM. It also gave a TGI [6] of 39.9 µM, a TGI [7] of over 91 µM and a TGI [8] of 31.4 µM. It also gave a TGI [9] of 25.4 µM.

`Cn1c(=O)c2c(nc(N3CCOCC3)n2CCCNCC(O)c2ccc(O)c(O)c2)n(C)c1=O` (stereo not given) showed a TGI [10] of over 100 µM, a TGI [1] of over 100 µM and a TGI [2] of over 100 µM. For the same compound, the TGI [3] was over 100 µM, the TGI [4] was over 100 µM and the TGI [5] was over 100 µM. For the same compound, the TGI [6] was over 100 µM, the TGI [7] was over 100 µM and the TGI [8] was over 100 µM.

With `O=C1CC(c2ccccc2)NCCCCN2CC(CN1)C(C(O)c1ccccc1)C2=O` (stereo not given) the TGI [10] was over 100 µM, the TGI [1] was over 100 µM and the TGI [2] was over 100 µM. For the same compound, the TGI [3] was over 100 µM, the TGI [4] was over 100 µM and the TGI [5] was over 100 µM. It also gave a TGI [6] of over 100 µM, a TGI [7] of over 100 µM and a TGI [8] of over 100 µM.

For `CC1(C)CCc2cc3c(cc2O1)OC(C)(C)CC3=O`, the TGI [2] was over 100 µM, the TGI [3] was over 100 µM and the TGI [4] was over 100 µM. For the same compound, the TGI [5] was over 100 µM, the TGI [6] was over 100 µM and the TGI [9] was over 100 µM.

Work on `CCc1cc(C)cc2[n+]1CC=C2C` yielded a TGI [10] of over 100 µM, a TGI [2] of over 100 µM and a TGI [3] of over 100 µM. The TGI [4] was over 100 µM, the TGI [5] was over 100 µM and the TGI [6] was over 100 µM. For the same compound, the TGI [7] was over 100 µM and the TGI [8] was over 100 µM.
